Results as given in patent US7998985B2, “1,5-diphenyl-3-pyridinylamino-1,5-dihydropyrrolidin-2-one as CB1 receptor modulator” (Eli Lilly and Company, priority 2006, dated 2011).

How the values were obtained:
[1] = system: alcohol-preferring (P) rats; experiment: 12-hour ethanol consumption in alcohol-preferring rats (P rats); type: in vivo, rat; conditions: female P rats, 15% (v/v) ethanol, continuous free access; Example 2 given p.o.
Excerpt: Evaluate Example 2 for its ability to reduce consumption of ethanol in rats selectively bred for high oral ethanol intake (P rats). In addition, study the effects of Example 2 under conditions in which effects of the compound on motivation or the control of behavior by ethanol could be assessed.
Methods: Study the effects of Example 2 on female, alcohol-preferring (P) rats on alcohol consumption under a continuous free access paradigm. For comparative purposes test the standard opioid antagonist naltrexone. Monitor voluntary consumption of 15% (v/v) ethanol. Suspend Example 2 in vehicle (1% CMC, 0.5% SLS, 0.08% povidone, 0.05% Dow Corning antifoam 1510 US) and give p.o. 3 hours prior to the onset of the dark cycle. In addition, measure locomotor activity via infrared sensor.

[2] = biological target: T1, human CB2 receptor (Homo sapiens, UniProt P34972); experiment: Antibody-capture SPA GTP-γ-35S binding, antagonist/inverse agonist mode, human CB2 (Sf9 membranes); type: biochemical; conditions: Table 3
T1 construct: purchased Applied Cell Sciences, Gaithersburg, Md; PerkinElmer Life Sciences, Boston, Mass; host or cells: Sf9 insect cells (recombinant expression), membranes

[3] = system: NIH male Swiss mice; experiment: Forced Swim Test (FST); type: in vivo, mouse; conditions: 90 minute pre-treatment, lowest dose with significant decrease in immobility time
Method: Receive NIH male Swiss mice (Harlan Sprague-Dawley, weight 20-25 g) 7 to 10 days prior to testing. House 12 mice per cage. Test only animals that weigh 25-30 g. On the day of testing, bring animals to the testing room at least 1 hour prior to dosing. When dosing starts, dose at 6-8 minute intervals between each dose with each mouse receiving either Administer vehicle (1% CMC, 0.5% SLS, 0.08% povidone, 0.05% antifoam) or Example 2, p.o. Next, place mice in a clean cage (4 mice per cage). After 90 minutes, start the test following a 90 minute pre-treatment with Example 2 or vehicle.
Mice FST: Place NIH-Swiss mice in clear plastic cylinders (diameter: 10 cm; height: 25 cm) filled to 6 cm with 22-25° C. water for six minutes. Record the duration of immobility during the last 4 minutes of the six-minute trial. A mouse is regarded as immobile when floating motionless or making only those movements necessary to keep its head above the water. Analyze data by ANOVA with a post-hoc Dunnett's test (alpha=0.05; JMP). Record the minimum effective dose (MED) as the lowest dose of compound at which statistically significant decrease in immobility time is observed versus a vehicle control.

[4] = Bioavailability, rat; conditions: in vivo
Excerpt: (§1) Methods for accessing bioavailability are well appreciated in the art. One such reference is Medicinal Research Reviews Vol. 21 No. 5 382-396 (2001).

[5] = Bioavailability, dog; conditions: in vivo
Excerpt: as §1

[6] = biological target: hCB1 (Homo sapiens, UniProt P21554); experiment: hCB1 SPA GTPγ35S Sf9 membranes, antagonist mode (Table 3); type: biochemical; set-up: purchased Applied Cell Sciences, Gaithersburg, Md; PerkinElmer Life Sciences, Boston, Mass; host or cells: Sf9 insect cells (recombinant expression), membranes; conditions: hCB1 SPA GTPγ35S Sf9 Mem 22.7 ug protein/well Antagonist; read-out: Inverse Agonist Potency CB1 (Kb)
hCB1, sequence (P21554 whole entry): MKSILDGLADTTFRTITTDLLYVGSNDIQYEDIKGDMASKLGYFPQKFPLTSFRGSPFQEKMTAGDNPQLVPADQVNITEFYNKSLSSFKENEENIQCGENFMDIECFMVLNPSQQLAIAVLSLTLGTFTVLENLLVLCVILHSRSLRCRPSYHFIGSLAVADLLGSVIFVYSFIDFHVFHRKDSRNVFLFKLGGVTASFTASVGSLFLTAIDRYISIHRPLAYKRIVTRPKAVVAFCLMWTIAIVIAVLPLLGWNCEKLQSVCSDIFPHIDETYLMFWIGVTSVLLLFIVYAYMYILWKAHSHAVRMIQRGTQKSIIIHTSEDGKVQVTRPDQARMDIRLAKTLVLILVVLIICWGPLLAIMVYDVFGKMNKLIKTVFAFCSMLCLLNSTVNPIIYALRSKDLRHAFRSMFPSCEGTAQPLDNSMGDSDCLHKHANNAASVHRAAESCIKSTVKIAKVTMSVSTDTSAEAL

T1 sequence (P34972 whole entry): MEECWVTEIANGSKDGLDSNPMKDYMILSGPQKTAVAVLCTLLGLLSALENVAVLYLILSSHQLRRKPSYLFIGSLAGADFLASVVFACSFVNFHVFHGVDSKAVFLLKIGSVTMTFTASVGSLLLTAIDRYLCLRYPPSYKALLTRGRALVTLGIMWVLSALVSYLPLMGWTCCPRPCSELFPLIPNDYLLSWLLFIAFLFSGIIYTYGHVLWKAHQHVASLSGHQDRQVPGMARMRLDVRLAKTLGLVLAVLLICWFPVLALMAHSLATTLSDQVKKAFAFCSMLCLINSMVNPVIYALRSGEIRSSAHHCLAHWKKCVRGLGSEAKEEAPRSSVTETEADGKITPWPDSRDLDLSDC

| Inverse Agonist Potency CB2 (Kb, nM) [2] | Kb [6] | SMILES | other results |
| --- | --- | --- | --- |
| No measurable activity |  | CC(C)(N[C@@H]1C[C@H](c2cccc(OC(F)(F)F)c2)N(c2ccc(C(F)(F)F)cc2)C1=O)c1ccc(C(F)(F)F)nc1.Cc1ccc(S(=O)(=O)O)cc1 [drawing 21] | FST (MED mg/kg p.o.) [3]: 1 mg/kg; bioavailability [4]: 65%; bioavailability [5]: 60% |
| No measurable activity | 3 nM | CC(C)(N[C@H]1C[C@H](c2cccc(OC(F)(F)F)c2)N(c2ccc(C(F)(F)F)cc2)C1=O)c1ccc(C(F)(F)F)nc1.Cc1ccc(S(=O)(=O)O)cc1 [drawing 23] |  |
| No measurable activity | 8.8 nM | CC(C)(N[C@H]1C[C@H](c2cccc(OC(F)(F)F)c2)N(c2ccc(C(F)(F)F)cc2)C1=O)c1ccc(C(F)(F)F)nc1.Cl [drawing 24] |  |

The remaining lines, values behind:

| SMILES | Inverse Agonist Potency CB2 (Kb, nM) [2] | Kb [6] | other results |
| --- | --- | --- | --- |
| O=C1CC[C@@]2(O)[C@H]3Cc4ccc(O)c5c4[C@@]2(CCN3CC2CC2)[C@H]1O5 [Naltrexone, naltrexone, reference compound] |  |  | consumption of ethanol [1]: at higher doses, was also able to reduce ethanol intake |
| CC(C)(N[C@@H]1C[C@H](c2cccc(OC(F)(F)F)c2)N(c2ccc(C(F)(F)F)cc2)C1=O)c1ccc(C(F)(F)F)nc1.Cl [drawing 22] | No measurable activity |  |  |
